Experimental data: US20230151003A1, “COMPOUNDS AND METHODS OF USE” (Exelixis, Inc., priority 2020, published 2023)

Tests used:
AXL = target: T1, AXL (Homo sapiens, UniProt P30530); assay: AXL autophosphorylation ELISA in A-172 cells; assay type: cell-based; conditions: Table 3 Cellular Activities, Gas6-stimulated, phospho-AXL ELISA
T1 construct: endogenous in cells; host or cells: A-172 glioblastoma cells (ATCC #CRL-1620)
T1 sequence (P30530 26-894): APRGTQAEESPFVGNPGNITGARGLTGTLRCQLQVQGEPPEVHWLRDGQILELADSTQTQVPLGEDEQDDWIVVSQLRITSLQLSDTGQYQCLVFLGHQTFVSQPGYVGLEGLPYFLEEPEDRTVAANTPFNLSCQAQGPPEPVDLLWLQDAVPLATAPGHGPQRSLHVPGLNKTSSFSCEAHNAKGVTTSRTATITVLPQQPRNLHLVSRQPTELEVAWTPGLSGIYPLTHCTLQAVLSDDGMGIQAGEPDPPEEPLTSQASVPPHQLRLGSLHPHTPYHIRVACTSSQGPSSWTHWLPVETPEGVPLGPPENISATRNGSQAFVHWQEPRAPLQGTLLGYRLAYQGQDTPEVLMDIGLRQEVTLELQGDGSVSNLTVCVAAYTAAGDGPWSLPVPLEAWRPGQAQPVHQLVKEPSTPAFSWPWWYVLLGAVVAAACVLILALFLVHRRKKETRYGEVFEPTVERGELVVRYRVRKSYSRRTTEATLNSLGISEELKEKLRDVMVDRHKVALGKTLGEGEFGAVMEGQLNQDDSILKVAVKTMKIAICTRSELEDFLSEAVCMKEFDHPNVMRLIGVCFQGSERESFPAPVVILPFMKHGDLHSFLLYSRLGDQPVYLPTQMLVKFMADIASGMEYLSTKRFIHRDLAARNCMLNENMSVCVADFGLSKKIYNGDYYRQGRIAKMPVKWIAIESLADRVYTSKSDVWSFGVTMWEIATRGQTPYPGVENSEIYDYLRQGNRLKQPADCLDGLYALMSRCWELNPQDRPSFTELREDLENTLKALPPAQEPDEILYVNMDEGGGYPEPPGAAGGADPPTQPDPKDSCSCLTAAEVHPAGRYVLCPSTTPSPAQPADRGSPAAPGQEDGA
Summary of the method: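 A-172 glioblastoma cells serum-starved 24 h, treated 1 h with compounds (8-point dose curve, 0.3% DMSO), then stimulated with 1 μg/mL Gas6 for 15 min. Lysate phospho-AXL quantified by ELISA against a standard; IC50 from 4-parameter logistic fit, normalised to DMSO and reference-inhibitor controls.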

KDR = KDR (Homo sapiens, UniProt P35968); assay: KDR autophosphorylation ELISA in HUVEC cells; assay type: cell-based; design: endogenous in cells; host or cells: HUVEC (Lonza #C2519A); conditions: Table 3 Cellular Activities, VEGF165-stimulated, phospho-KDR ELISA
Summary of the method: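 Inhibition of VEGF165-induced KDR phosphorylation was determined in serum-starved HUVEC after 1 h compound pretreatment and 5 min stimulation with 100 ng/mL VEGF165. Lysate phospho-KDR was measured by ELISA; IC50 values came from a 4-parameter logistic fit of 8-point curves.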

Chain of KDR (P35968 20-1356): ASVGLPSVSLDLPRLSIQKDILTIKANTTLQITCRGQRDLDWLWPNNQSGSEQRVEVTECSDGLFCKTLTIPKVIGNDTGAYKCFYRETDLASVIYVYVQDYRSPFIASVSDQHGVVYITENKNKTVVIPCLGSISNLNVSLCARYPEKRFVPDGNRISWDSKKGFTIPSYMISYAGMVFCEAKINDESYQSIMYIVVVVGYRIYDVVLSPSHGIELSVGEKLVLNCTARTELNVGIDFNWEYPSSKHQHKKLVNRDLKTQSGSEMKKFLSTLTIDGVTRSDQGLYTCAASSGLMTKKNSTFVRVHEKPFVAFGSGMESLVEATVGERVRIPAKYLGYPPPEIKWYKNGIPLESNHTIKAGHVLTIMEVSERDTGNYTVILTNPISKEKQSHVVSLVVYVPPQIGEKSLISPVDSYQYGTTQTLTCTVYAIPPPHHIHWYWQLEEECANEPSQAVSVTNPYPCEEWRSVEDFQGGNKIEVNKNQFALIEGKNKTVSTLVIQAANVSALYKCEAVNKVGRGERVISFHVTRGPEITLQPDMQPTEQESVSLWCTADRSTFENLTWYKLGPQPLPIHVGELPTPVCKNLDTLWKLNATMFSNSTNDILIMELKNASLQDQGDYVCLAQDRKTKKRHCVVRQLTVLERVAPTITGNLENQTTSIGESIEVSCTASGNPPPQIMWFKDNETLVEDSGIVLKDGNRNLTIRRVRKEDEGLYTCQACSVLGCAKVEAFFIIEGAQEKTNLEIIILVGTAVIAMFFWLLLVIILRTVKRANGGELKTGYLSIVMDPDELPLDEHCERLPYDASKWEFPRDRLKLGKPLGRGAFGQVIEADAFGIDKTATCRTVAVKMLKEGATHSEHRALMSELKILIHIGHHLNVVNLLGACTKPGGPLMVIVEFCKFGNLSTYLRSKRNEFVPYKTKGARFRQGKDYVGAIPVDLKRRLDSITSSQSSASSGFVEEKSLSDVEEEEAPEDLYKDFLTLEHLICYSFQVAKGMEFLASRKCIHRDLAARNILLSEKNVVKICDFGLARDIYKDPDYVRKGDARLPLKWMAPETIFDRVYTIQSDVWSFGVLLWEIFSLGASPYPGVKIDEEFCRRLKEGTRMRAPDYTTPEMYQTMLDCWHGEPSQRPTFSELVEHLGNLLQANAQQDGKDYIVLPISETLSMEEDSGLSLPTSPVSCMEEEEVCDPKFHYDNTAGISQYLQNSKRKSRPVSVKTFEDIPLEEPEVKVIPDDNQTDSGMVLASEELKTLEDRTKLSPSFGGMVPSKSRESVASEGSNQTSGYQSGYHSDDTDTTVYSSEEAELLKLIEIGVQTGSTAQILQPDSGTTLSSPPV

SMILES | IC50 (AXL) [nM] | IC50 (KDR) [nM]
COc1cnc2c(Oc3ccc(NC(=O)c4cnc(C)c(-c5ccco5)c4O)cc3F)ccnc2c1 [Compound 96, N-[3-Fluoro-4-[(7-methoxy-1,5-naphthyridin-4-yl)oxy]phenyl]-5-(2-furyl)-4-hydroxy-6-methyl-pyridine-3-carboxamide] | ≤ 100 | ≤ 100
COc1cc2nccc(Oc3ccc(NC(=O)c4c(C)nc(C)c(-c5ccc(C)o5)c4O)cc3F)c2nc1OC [Compound 110, N-[4-[(6,7-Dimethoxy-1,5-naphthyridin-4-yl)oxy]-3-fluoro-phenyl]-4-hydroxy-2,6-dimethyl-5-(5-methyl-2-furyl)pyridine-3-carboxamide] | ≤ 100 | ≤ 100
CCc1ccc(-c2c(C)ncc(C(=O)Nc3ccc(Oc4ccnc5cc(OC)c(OC)nc45)c(F)c3)c2O)o1 [Compound 153, N-[4-[(6,7-Dimethoxy-1,5-naphthyridin-4-yl)oxy]-3-fluorophenyl]-5-(5-ethylfuran-2-yl)-4-hydroxy-6-methylpyridine-3-carboxamide] | ≤ 100 | ≤ 100
COc1cc2nccc(Oc3ccc(NC(=O)c4c(C)ncc(-c5sccc5C)c4O)cc3F)c2nc1OC [Compound 126, N-[4-[(6,7-Dimethoxy-1,5-naphthyridin-4-yl)oxy]-3-fluorophenyl]-4-hydroxy-2-methyl-5-(3-methylthiophen-2-yl)pyridine-3-carboxamide] | ≤ 100 | ≤ 100
COc1cnc2c(Oc3ccc(NC(=O)c4cnc(C)c(-c5ccc(C)s5)c4O)cc3F)ccnc2c1 [Compound 101, N-[3-Fluoro-4-[(7-methoxy-1,5-naphthyridin-4-yl)oxy]phenyl]-4-hydroxy-6-methyl-5-(5-methyl-2-thienyl) pyridine-3-carboxamide] | ≤ 100 | ≤ 100
COCc1nc(C)c(-c2ccccn2)c(O)c1C(=O)Nc1ccc(Oc2ccnc3cc(OC)c(OC)nc23)c(F)c1 [Compound 195, N-[4-[(6,7-Dimethoxy-1,5-naphthyridin-4-yl)oxy]-3-fluorophenyl]-4-hydroxy-2-(methoxymethyl)-6-methyl-5-pyridin-2-ylpyridine-3-carboxamide] | ≤ 100 | ≤ 100
COc1cc2nccc(Oc3ccc(NC(=O)c4c(C)nc(C)c(-c5ccnn5C)c4O)cc3F)c2nc1OC [Compound 108, N-[4-[(6,7-Dimethoxy-1,5-naphthyridin-4-yl)oxy]-3-fluoro-phenyl]-4-hydroxy-2,6-dimethyl-5-(2-methylpyrazol-3-yl) pyridine-3-carboxamide] | ≤ 100 | ≤ 100
COc1cc2nccc(Oc3ccc(NC(=O)c4cn(CCF)c(C)c(-c5ccco5)c4=O)cc3F)c2nc1OC [Compound 333, N-[4-[(6,7-Dimethoxy-1,5-naphthyridin-4-yl)oxy]-3-fluorophenyl]-1-(2-fluoroethyl)-5-(furan-2-yl)-6-methyl-4-oxopyridine-3-carboxamide] | ≤ 100 | 100 to 300
COc1cc2nccc(Oc3ccc(NC(=O)c4c(C)nc(C)c(-c5ccoc5)c4O)cc3F)c2nc1OC [Compound 112, N-[4-[(6,7-Dimethoxy-1,5-naphthyridin-4-yl)oxy]-3-fluoro-phenyl]-5-(3-furyl)-4-hydroxy-2,6-dimethyl-pyridine-3-carboxamide] | ≤ 100 | ≤ 100
COc1cc2nccc(Oc3ccc(NC(=O)c4c(C)nc(C)c(-c5cc(C(F)(F)F)nn5C)c4O)cc3F)c2nc1OC [Compound 138] | ≤ 100 | ≤ 100
COc1cc2nccc(Oc3ccc(NC(=O)c4c(C)n(C)c(C)c(-c5ccco5)c4=O)cc3F)c2nc1OC [Compound 160, N-[4-[(6,7-Dimethoxy-1,5-naphthyridin-4-yl)oxy]-3-fluorophenyl]-5-(furan-2-yl)-1,2,6-trimethyl-4-oxopyridine-3-carboxamide] | ≤ 100 | 100 to 300
COc1cc2nccc(Oc3ccc(NC(=O)c4cnc(C)c(-c5cccs5)c4O)cc3F)c2nc1OC [Compound 90, N-[4-[(6,7-Dimethoxy-1,5-naphthyridin-4-yl)oxy]-3-fluoro-phenyl]-4-hydroxy-6-methyl-5-(2-thienyl)pyridine-3-carboxamide] | ≤ 100 | ≤ 100
COc1cnc2c(Oc3ccc(NC(=O)c4cnc(C)c(-c5cc(C)cs5)c4O)cc3F)ccnc2c1 [Compound 102, N-[3-Fluoro-4-[(7-methoxy-1,5-naphthyridin-4-yl)oxy]phenyl]-4-hydroxy-6-methyl-5-(4-methyl-2-thienyl) pyridine-3-carboxamide] | ≤ 100 | ≤ 100
COc1cc2nccc(Oc3ccc(NC(=O)c4cnc(C)c(-c5cnoc5)c4O)cc3F)c2nc1OC [Compound 140, N-[4-[(6,7-Dimethoxy-1,5-naphthyridin-4-yl)oxy]-3-fluorophenyl]-4-hydroxy-6-methyl-5-(1,2-oxazol-4-yl)pyridine-3-carboxamide] | ≤ 100 | ≤ 100
COc1cc2nccc(Oc3ccc(NC(=O)c4cnc(C)c(-c5ccc(C(C)C)o5)c4O)cc3F)c2nc1OC [Compound 154, N-[4-[(6,7-Dimethoxy-1,5-naphthyridin-4-yl)oxy]-3-fluorophenyl]-4-hydroxy-6-methyl-5-(5-propan-2-ylfuran-2-yl)pyridine-3-carboxamide] | ≤ 100 | ≤ 100
COc1cc2nccc(Oc3ccc(NC(=O)c4c(C)ncc(-c5ccsc5)c4O)cc3F)c2nc1OC [Compound 127, N-[4-[(6,7-Dimethoxy-1,5-naphthyridin-4-yl)oxy]-3-fluorophenyl]-4-hydroxy-2-methyl-5-thiophen-3-ylpyridine-3-carboxamide] | ≤ 100 | ≤ 100
COc1ccc2nccc(Oc3ccc(NC(=O)c4cnc(C)c(-c5cccs5)c4O)cc3F)c2n1 [Compound 128, N-[3-Fluoro-4-[(6-methoxy-1,5-naphthyridin-4-yl)oxy]phenyl]-4-hydroxy-6-methyl-5-thiophen-2-ylpyridine-3-carboxamide] | ≤ 100 | ≤ 100
COc1cc2nccc(Oc3ccc(NC(=O)c4c(C)nc(C)c(-c5cccs5)c4O)cc3F)c2nc1OC [Compound 107] | ≤ 100 | ≤ 100
COc1cnc2c(Oc3ccc(NC(=O)c4cnc(C)c(-c5cccs5)c4O)cc3F)ccnc2c1 [Compound 100, N-[3-Fluoro-4-[(7-methoxy-1,5-naphthyridin-4-yl)oxy]phenyl]-4-hydroxy-6-methyl-5-(2-thienyl)pyridine-3-carboxamide] | ≤ 100 | ≤ 100
C=C(C)c1ccc(-c2c(C)ncc(C(=O)Nc3ccc(Oc4ccnc5cc(OC)c(OC)nc45)c(F)c3)c2O)o1 [Compound 152, N-[4-[(6,7-Dimethoxy-1,5-naphthyridin-4-yl)oxy]-3-fluorophenyl]-4-hydroxy-6-methyl-5-(5-prop-1-en-2-ylfuran-2-yl)pyridine-3-carboxamide] | 100 to 300 | ≤ 100
COc1cc2nccc(Oc3ccc(NC(=O)c4cnc(C)c(-c5ccco5)c4O)cc3F)c2nc1OC [Compound 89, N-[4-[(6,7-Dimethoxy-1,5-naphthyridin-4-yl)oxy]-3-fluorophenyl]-5-(furan-2-yl)-4-hydroxy-6-methylpyridine-3-carboxamide] | ≤ 100 | ≤ 100
C=CCc1ccc(-c2c(C)ncc(C(=O)Nc3ccc(Oc4ccnc5cc(OC)c(OC)nc45)c(F)c3)c2O)o1 [Compound 155, N-[4-[(6,7-Dimethoxy-1,5-naphthyridin-4-yl)oxy]-3-fluorophenyl]-4-hydroxy-6-methyl-5-(5-prop-2-enylfuran-2-yl)pyridine-3-carboxamide] | ≤ 100 | ≤ 100
C=Cc1ccc(-c2c(C)ncc(C(=O)Nc3ccc(Oc4ccnc5cc(OC)c(OC)nc45)c(F)c3)c2O)o1 [Compound 151, N-[4-[(6,7-Dimethoxy-1,5-naphthyridin-4-yl)oxy]-3-fluorophenyl]-5-(5-ethenylfuran-2-yl)-4-hydroxy-6-methylpyridine-3-carboxamide] | ≤ 100 | ≤ 100
